“And” between values parts separate entries of the source, which are not always exact repeats. Equal entries are not always repeated.
What was measured:
RAW 264.7 cells = assay: MTT cell viability of LPS-stimulated RAW 264.7 cells; format: cell-based, murine; settings: 100 μg/mL
Experimental: Cancerous cell lines (MCF-7: human breast adenocarcinoma cells; HepG2: human hepatocellular carcinoma cells; Caco-2: human epithelial colorectal adenocarcinoma cells; A549: human epithelial lung adenocarcinoma cells), obtained from the American Type Culture Collection (ATCC) (Rockville, MD, United States of America), were cultured in Dulbecco’s Modified Eagle’s Medium (DMEM) high glucose (4.5 g/L) containing L-glutamine (4 mM) and sodium-pyruvate (Hyclone™) supplemented with 10% (v/v) fetal bovine serum (FBS) (Capricorn Scientific GmbH, South America), and incubated at 37°C with 5% CO2 in a humidified environment. African green monkey (Vero) kidney cells (also obtained from ATCC), a non-cancerous cell line, were grown in DMEM high glucose (4.5 g/L) containing L-glutamine (Lonza, Belgium) and supplemented with 5% FBS (Capricorn Scientific GmbH, South America) and 1% gentamicin (Virbac, RSA) in the same environment as cancer cells. […]
Nitric oxide (NO) production was evaluated in lipopolysaccharide (LPS)-stimulated RAW 264.7 cells by measuring the influence of tested compounds on the accumulation of nitrite, an indicator of NO in the cell supernatant, which can be detected with Griess reagent (Merck, Darmstadt, Germany). […] The microtiter plate was incubated for 10 min in the dark at room temperature, and the absorbance of the mixture was measured at 550 nm on a microplate reader (Synergy Multi-Mode Reader, BioTek, Winooski, United States of America). The quantity of nitrite was determined from a sodium nitrite standard curve, and the percentage of NO production was calculated based on the ability of each tested sample to inhibit nitric oxide production by LPS-stimulated RAW 264.7 cells compared to the control (cells treated with LPS without samples which was considered as 100% NO production). Additionally, the cell viability of treated cells was determined by using the MTT assay as previously described ([Mosmann, 1983]).

Caco-2 cells = assay: MTT antiproliferation assay, Caco-2; format: cell-based, human; settings: for IC50: Homo sapiens, Caco-2, 48 h, MTT; for SI values Caco-2: IC50 of non-cancerous Vero cells divided by IC50 of Caco-2
Experimental: (§1) Cancerous cell lines (MCF-7: human breast adenocarcinoma cells; HepG2: human hepatocellular carcinoma cells; Caco-2: human epithelial colorectal adenocarcinoma cells; A549: human epithelial lung adenocarcinoma cells), obtained from the American Type Culture Collection (ATCC) (Rockville, MD, United States of America), were cultured in Dulbecco’s Modified Eagle’s Medium (DMEM) high glucose (4.5 g/L) containing L-glutamine (4 mM) and sodium-pyruvate (Hyclone™) supplemented with 10% (v/v) fetal bovine serum (FBS) (Capricorn Scientific GmbH, South America), and incubated at 37°C with 5% CO2 in a humidified environment. African green monkey (Vero) kidney cells (also obtained from ATCC), a non-cancerous cell line, were grown in DMEM high glucose (4.5 g/L) containing L-glutamine (Lonza, Belgium) and supplemented with 5% FBS (Capricorn Scientific GmbH, South America) and 1% gentamicin (Virbac, RSA) in the same environment as cancer cells. The RAW 264.7 murine macrophage cells (obtained from ATCC) were cultured in DMEM high glucose (4.5 g/L) containing L-glutamine (Lonza, Belgium), supplemented with 10% FBS (Capricorn Scientific GmbH, South America) and 1% penicillin/streptomycin/fungizone (PSF) solution, and kept at 37°C in a 5% CO2 humidified environment.
(§2) The cancerous and non-cancerous cells were seeded at a density of 10^4 cells per well in 96-well microtiter plates, and they were incubated overnight at 37°C with 5% CO2 in a 5% CO2 humidified environment in order to allow the attachment of cells at the bottom of the plates. Then, the cells were exposed to increasing concentrations of compounds (100, 50, 25, 10 and 5 μg/mL) dissolved in dimethyl sulfoxide (DMSO) and further diluted in fresh culture medium. In this assay, the final concentration of DMSO in the culture medium was 0.5% used as negative control while doxorubicin hydrochloride (Pfizer, United States of America) was used as a positive control. The culture plates were incubated for 48 h at 37°C in a 5% CO2 humidified environment, after which the culture medium was discarded, and replaced by 200 µL of fresh culture medium with 30 µL of 3-(4,5-dimethylthiazol-2-yl)-2,5-diphenyl-2H-tetrazolium bromide (MTT) (5 mg/mL) dissolved in phosphate buffered saline ([Mosmann, 1983]). After 4 h of incubation, the medium was gently removed, and the formazan crystals were solubilized in 50 µL of DMSO. The absorbance was measured at 570 nm after shaking for 1 min on a microplate reader (Synergy Multi-Mode Reader, BioTek, Winooski, United States of America).
(§3) The cell viability rate was determined at each concentration of the compound as a percentage of cells treated with DMSO at 0.5% used as negative control. […] The selectivity index (Supporting Material) values were calculated for each compound by dividing the IC50 of non-cancerous cells by the IC50 of cancerous cells in the same units ([Mfotie Njoya et al., 2018]; [Mfotie Njoya et al., 2020]).

MCF-7 cells = assay: MTT antiproliferation assay, MCF-7; format: cell-based, human; settings: for IC50: Homo sapiens, MCF7, 48 h, MTT; for SI values MCF7: IC50 of non-cancerous Vero cells divided by IC50 of MCF-7
Experimental: as §1, §2, §3

[1] = tested on: NO production in LPS-stimulated RAW 264.7 cells; assay: Nitric oxide production inhibitory assay (Griess) in LPS-stimulated RAW 264.7 cells; format: cell-based, murine; settings: for reduction of NO production: 100 μg/mL; for IC50: Mus musculus, RAW264.7, LPS (2 μg/mL), 24 h
Experimental: as §1
Nitric oxide (NO) production was evaluated in lipopolysaccharide (LPS)-stimulated RAW 264.7 cells by measuring the influence of tested compounds on the accumulation of nitrite, an indicator of NO in the cell supernatant, which can be detected with Griess reagent (Merck, Darmstadt, Germany). Briefly, the RAW 264.7 cells at their exponential growth phase were seeded at a density of 2×10^4 cells per well in 96 well-microtiter plates, and they were incubated overnight at 37°C in a 5% CO2 humidified environment to allow attachment. […] Then, culture medium containing LPS (2 μg/mL) was added to each well and further incubated for 24 h at 37°C in a 5% CO2 humidified environment. Thereafter, 100 μL of cell supernatant from each well were transferred into a new 96-well microtiter plate and an equal volume of Griess reagent was added according to protocol described by the manufacturer. The microtiter plate was incubated for 10 min in the dark at room temperature, and the absorbance of the mixture was measured at 550 nm on a microplate reader (Synergy Multi-Mode Reader, BioTek, Winooski, United States of America). The quantity of nitrite was determined from a sodium nitrite standard curve, and the percentage of NO production was calculated based on the ability of each tested sample to inhibit nitric oxide production by LPS-stimulated RAW 264.7 cells compared to the control (cells treated with LPS without samples which was considered as 100% NO production). Additionally, the cell viability of treated cells was determined by using the MTT assay as previously described ([Mosmann, 1983]).

Row | Compound | cell viability of LPS-stimulated RAW 264.7 cells (RAW 264.7 cells) | IC50 (Caco-2 cells) | SI values Caco-2 (Caco-2 cells) | IC50 (MCF-7 cells) | SI values MCF7 (MCF-7 cells) | reduction of NO production [1] | IC50 [1]
1 | CC1(C)CC[C@]2(C(=O)O)CC[C@]3(C)C(=CC[C@@H]4[C@@]5(C)CC[C@H](O)[C@@](C)(CO)[C@@H]5CC[C@]43C)[C@@H]2C1 [Compound 2, hederagenin] | significantly (p < 0.05) reduced the cell viability | 36.7 µg/mL and 77.6 µM | 1.24 | 8.92 µg/mL and 18.9 µM | 5.11 | at least 50% | 65.1 µg/mL and 138 µM
2 | C[C@@H]1CC[C@]2(C(=O)O)CC[C@]3(C(=O)O)C(=CCC4[C@@]5(C)CC[C@H](O[C@@H]6O[C@H](C)[C@@H](O)[C@H](O)[C@H]6O)C(C)(C)C5CC[C@]43C)C2[C@H]1C (stereo partly drawn) [Compound 9, quinovic acid 3-O-[β-D-quinovopyranoside]] | significantly (p < 0.05) reduced the cell viability | 53.7 µg/mL and 84.8 µM | 0.88 | 51.5 µg/mL and 81.4 µM | 0.91 | at least 50% | 49 µg/mL and 77.4 µM
3 | C[C@]12COCC=C1C[C@H]1c3[nH]c4ccccc4c3CCN1C2=O [Compound 10, latifoliamide C] |  | 63.2 µg/mL and 205 µM | 1.04 | 32.9 µg/mL and 107 µM | 2.01 |  | > 100 µg/mL and > 324 µM
4 | C[C@@H]1CC[C@]2(C(=O)O)CC[C@]3(C(=O)O)C(=CCC4[C@@]5(C)CC[C@H](O[C@H]6O[C@H](C)[C@@H](O)[C@H](O)[C@H]6O)C(C)(C)C5CC[C@]43C)C2[C@H]1C (stereo partly drawn) [Compound 6, quinovic acid 3-O-[α-D-quinovopyranoside]] | significantly (p < 0.05) reduced the cell viability | 7.41 µg/mL and 11.7 µM | 0.83 | 5.96 µg/mL and 9.42 µM | 1.04 | at least 50% | 18.2 µg/mL and 28.7 µM
